According to PubChem BioAssay (NCI):
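96-well plates; 48 h exposure; 5 concentrations. Endpoints by linear interpolation between flanking doses. Not reached: highest tested concentration assigned. GI50 = concentration required for 50% inhibition of growth. TGI is the concentration that stops growth completely.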

Key:
Assay in all cases: NCI-60 cell line screen, 48 h
MDA-MB-435 = tested on: MDA-MB-435
TK-10 renal = tested on: TK-10 renal
NCI-H460 lung = tested on: NCI-H460 lung
BT-549 breast = tested on: BT-549 breast
HT29 colon = tested on: HT29 colon
ACHN renal = tested on: ACHN renal
786-0 renal = tested on: 786-0 renal
NCI-H23 lung = tested on: NCI-H23 lung

Compound	GI50 (MDA-MB-435)	TGI (MDA-MB-435)	GI50 (TK-10 renal)	TGI (TK-10 renal)	GI50 (NCI-H460 lung)	TGI (NCI-H460 lung)	GI50 (BT-549 breast)	TGI (BT-549 breast)	GI50 (HT29 colon)	TGI (HT29 colon)	GI50 (ACHN renal)	TGI (ACHN renal)	GI50 (786-0 renal)	TGI (786-0 renal)	GI50 (NCI-H23 lung)	TGI (NCI-H23 lung)
CS(=O)(=O)CCc1cccc(C(=O)c2cnn(-c3ccc(F)cc3)c2N)c1	> 25 µM	> 25 µM	> 25 µM	> 25 µM	> 25 µM	> 25 µM	> 25 µM	> 25 µM	> 25 µM	> 25 µM	> 25 µM	> 25 µM	> 25 µM	> 25 µM	> 25 µM	> 25 µM
Cc1csc(/C=C/C(=O)c2nnn(-c3ccnc4c(C(F)(F)F)cccc34)c2C)c1	56.9 µM	> 100 µM	87.1 µM	> 100 µM	43.5 µM	> 100 µM	> 100 µM	> 100 µM	27 µM	> 100 µM	> 100 µM	> 100 µM	> 100 µM	> 100 µM	48.9 µM	> 100 µM
COc1cccc(NC(=O)c2sc3nc(C)c(C(O)c4ccccc4)cc3c2N)c1 (stereo not drawn)	0.0251 µM	0.0751 µM	2.03 µM	65.1 µM	0.324 µM	3.21 µM	0.335 µM	19.5 µM	0.3 µM	14 µM	0.601 µM	18.2 µM	0.665 µM	26.6 µM	0.401 µM	15.8 µM
CNC(=O)c1ccccc1Nc1nc(Nc2cc(OC)c(OC)c(OC)c2)ncc1Br	0.0546 µM	2.11 µM	0.0186 µM	0.648 µM	0.0291 µM	1.37 µM	0.0704 µM	1.17 µM	0.0161 µM	12.7 µM	0.0209 µM	15.6 µM	0.0234 µM	1.85 µM	0.035 µM	1.12 µM
CCC(=C/[C@H](C)C/C=C/C(C)=C/[C@@H](C)C(=O)[C@@H](C)[C@H](O)[C@@H](C)CC)/C=C/[C@@H]1OC(=O)C=C[C@H]1C	< 0.01 µM	< 0.01 µM	< 0.01 µM	1.52 µM			< 0.01 µM	1.75 µM	< 0.01 µM	1.4 µM	< 0.01 µM	1.11 µM	< 0.01 µM	< 0.01 µM	< 0.01 µM	4.03 µM
N=c1ccn(O)cc1/C=C1/C(=O)Nc2ccccc21	> 100 µM	> 100 µM	> 100 µM	> 100 µM	> 100 µM	> 100 µM	> 100 µM	> 100 µM	> 100 µM	> 100 µM	> 100 µM	> 100 µM	> 100 µM	> 100 µM	> 100 µM	> 100 µM
CN(Cc1ccccc1)c1ccc(CO)c(Cl)c1	17.6 µM	59.2 µM	0.225 µM	1.01 µM	1.72 µM	14.6 µM	21.1 µM	> 100 µM	9.63 µM	> 81.4 µM	57.2 µM	> 100 µM	15.7 µM	> 100 µM	17.9 µM	> 100 µM
S=C(Nc1ccc(-c2nc3ccccc3[nH]2)cc1)Nc1ccc(-c2nc3ccccc3[nH]2)cc1	> 100 µM	> 100 µM	32.4 µM	> 100 µM	65 µM	> 100 µM	> 100 µM	> 100 µM	> 100 µM	> 100 µM	> 100 µM	> 100 µM	89.7 µM	> 100 µM	70.3 µM	> 100 µM
Cn1c2c(c3ccc([N+](=O)[O-])cc3c1=O)C(=O)c1ccccc1-2	47.4 µM	> 100 µM	> 100 µM	> 100 µM	> 100 µM	> 100 µM	> 100 µM	> 100 µM	> 100 µM	> 100 µM	> 100 µM	> 100 µM	> 100 µM	> 100 µM		
O=Nc1ccc(NO)c2ccccc12	1.94 µM	3.57 µM	27.6 µM	42.5 µM	21.7 µM	51.3 µM	15.7 µM	29.4 µM	5.96 µM	24.7 µM	12.6 µM	25.9 µM	18.6 µM	33.1 µM	7.03 µM	23.5 µM
NCCCCCCCn1c2c(c3ccccc3c1=O)C(=O)c1ccccc1-2	1.98 µM	4.06 µM	1.67 µM	3.29 µM	0.478 µM	2.59 µM	1.7 µM	3.14 µM	1.29 µM	2.6 µM	1.6 µM	3.47 µM	1.38 µM	2.75 µM	2.98 µM	8.36 µM
NCCOCCOCCNc1nc(-c2ccccc2)nc(N2CCN(c3ccccn3)CC2)n1	11.4 µM	24.5 µM			16.5 µM	34.9 µM	11.6 µM	24 µM	4.55 µM	17.6 µM	14.5 µM	27.9 µM	12.6 µM	26 µM	16.6 µM	31.3 µM
Nc1c(C(=O)Nc2cccc(F)c2)sc2nc3c(cc12)C(=O)CCC3			> 100 µM	> 100 µM	0.356 µM	> 100 µM	3.71 µM	> 100 µM	0.307 µM	> 100 µM	0.842 µM	> 100 µM	0.595 µM	> 100 µM	0.608 µM	> 100 µM
CCOC(=O)c1cc2c(cc1Cl)SC(N(c1ccc(OC)cc1)S(=O)(=O)c1ccc(Cl)cc1)=NS2(=O)=O	22.1 µM	57 µM	38.4 µM	> 100 µM	37.3 µM	> 100 µM			29.4 µM	> 100 µM	35 µM	> 100 µM	62.2 µM	> 100 µM	34.6 µM	> 100 µM
COC(=O)c1cc(O)c2cc3c(cc2c1-c1cc(OC)c(OC)c(OC)c1)OCO3	0.277 µM	1.12 µM	2.16 µM	> 100 µM	0.686 µM	> 100 µM	7.87 µM	> 100 µM			2.59 µM	> 100 µM	6.23 µM	> 100 µM	3.77 µM	> 100 µM
